Test results taken from PubChem BioAssay (NCI).
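Exposure lasted 48 hours, with cells grown in 96-well plates and compounds tested at five concentrations. The concentration for full growth arrest is given as TGI.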

Assays:
Test in all cases: NCI anticancer screen, dose series, 48 h
786-0 renal = system: 786-0 renal
A549 NSCLC = system: A549 NSCLC
ACHN renal = system: ACHN renal
CAKI-1 renal = system: CAKI-1 renal
CCRF-CEM leukemia = system: CCRF-CEM leukemia
COLO 205 colon = system: COLO 205 colon
DLD-1 colon = system: DLD-1 colon
DMS 114 small cell lung = system: DMS 114 small cell lung
DMS 273 small cell lung = system: DMS 273 small cell lung
EKVX NSCLC = system: EKVX NSCLC
HCC-2998 colon = system: HCC-2998 colon
HCT-15 colon = system: HCT-15 colon
HL-60(TB) leukemia = system: HL-60(TB) leukemia
HOP-18 NSCLC = system: HOP-18 NSCLC
HOP-62 NSCLC = system: HOP-62 NSCLC
HOP-92 NSCLC = system: HOP-92 NSCLC
HT29 colon = system: HT29 colon
IGROV1 ovarian = system: IGROV1 ovarian
K-562 leukemia = system: K-562 leukemia
KM12 colon = system: KM12 colon
KM20L2 colon = system: KM20L2 colon
LOX IMVI melanoma = system: LOX IMVI melanoma
LXFL 529 NSCLC = system: LXFL 529 NSCLC
M14 melanoma = system: M14 melanoma
M19-MEL melanoma = system: M19-MEL melanoma
MALME-3M melanoma = system: MALME-3M melanoma
MOLT-4 leukemia = system: MOLT-4 leukemia
NCI-H23 lung = system: NCI-H23 lung
NCI-H460 lung = system: NCI-H460 lung
NCI-H522 lung = system: NCI-H522 lung
OVCAR-3 ovarian = system: OVCAR-3 ovarian
OVCAR-4 ovarian = system: OVCAR-4 ovarian
OVCAR-5 ovarian = system: OVCAR-5 ovarian
OVCAR-8 ovarian = system: OVCAR-8 ovarian
RPMI-8226 leukemia = system: RPMI-8226 leukemia
RXF 393 renal = system: RXF 393 renal
SF-268 CNS = system: SF-268 CNS
SF-295 CNS = system: SF-295 CNS
SF-539 CNS = system: SF-539 CNS
SK-MEL-2 melanoma = system: SK-MEL-2 melanoma
SK-MEL-28 melanoma = system: SK-MEL-28 melanoma
SK-MEL-5 melanoma = system: SK-MEL-5 melanoma
SK-OV-3 ovarian = system: SK-OV-3 ovarian
SN12C renal = system: SN12C renal
SNB-19 CNS = system: SNB-19 CNS
SNB-75 CNS = system: SNB-75 CNS
SW-620 colon = system: SW-620 colon
TK-10 renal = system: TK-10 renal
U251 CNS = system: U251 CNS
UACC-257 melanoma = system: UACC-257 melanoma
UACC-62 melanoma = system: UACC-62 melanoma
UO-31 renal = system: UO-31 renal

Measured: TGI

CC1(C=O)C(=O)CCC2(C)C3CC(=O)OC3CCC12 (configuration not stated)
> 100 µM: all assays above
